Here are results for 54 compounds from PubChem BioAssay AID1224920 (Broad Institute, 2016).

Several values for one entry are separate records, joined by “and”; a condition that tells them apart may be missing. Equal values may be shown once. Activity calls are given as the source filed them.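 The calls were made as follows: active = IC50 no higher than ten times the top tested dose; inconclusive = flat fit with 30 to 70% inhibition, or poor fit; inactive = IC50 above ten times the top dose.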 Where only a bound is given, the exact number is not on record here.

This assay has as its system Clostridium difficile clinical isolate growth, OD600, 24 h. Kind of assay: growth modulation of Clostridium difficile isolate – OD600, 9-point, retest, dose response (AID 1224920).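 Also: inhibitors lower culture turbidity so OD600 falls.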
The IC50 is the concentration at which inhibition is half-maximal. Consider `OC[C@H]1[C@@H](c2ccc(C#CC3CCCC3)cc2)[C@@H]2CN(CCC(F)(F)F)CCCCN12`, for which the IC50 was 48.2 µM.
`N#Cc1ccc(-c2ccc(C3[C@@H]4CN(Cc5ccccc5F)C[C@H]3N4)cc2)cc1` (some centres undefined): the IC50 was 35.8 µM and 26.1 µM.
Under `COc1ccc(NC(=O)N2CCCCN3[C@H](CO)[C@@H](c4ccc(C#Cc5ccccc5)cc4)[C@H]3C2)cc1` stands 25.7 µM.
For the compound `Cc1cccc(-c2ccc(C3[C@@H]4CN(Cc5ccccc5F)C[C@H]3N4)cc2)c1` (some centres undefined), the IC50 is 6.22 µM.
On to `O=C(C[C@@H]1CC[C@H]2[C@@H](COC[C@@H](O)CN2C(=O)Nc2cc(Cl)cc(Cl)c2)O1)N1CCOCC1`, for which the IC50 is 17.3 µM.
With `COc1ccc(C#Cc2ccc([C@@H]3[C@@H](CO)N4CCCCN(C(=O)Nc5cccc(F)c5)C[C@H]34)cc2)cc1` the figure was 14.4 µM; with `Cc1ccccc1-c1ccc(C2[C@H]3CNC[C@@H]2N3S(=O)(=O)c2ccc(Cl)cc2)cc1` (some centres undefined), 35.8 µM.
As to `Cc1cccc(S(=O)(=O)N2C[C@@H]3N[C@H](C2)C3c2ccc(-c3ccccc3F)cc2)c1` (some centres undefined), the IC50 was 11.3 µM.
Regarding `COc1ccc(-c2ccc(C3[C@@H]4CN(C(=O)Nc5cccc(F)c5)C[C@H]3N4)cc2)cc1` (some centres undefined), the IC50 was 26 µM.
With `COc1cccc(CN2[C@@H]3CNC[C@H]2C3c2ccc(-c3cccc(OC)c3)cc2)c1` (some centres undefined) the figure was 13.3 µM.
As to `O=S(=O)(c1ccc(F)cc1)N1C[C@@H]2N[C@H](C1)C2c1ccc(-c2ccc(F)cc2)cc1` (some centres undefined), the IC50 is 128 µM.
For the compound `CC(C)CC#Cc1ccc([C@H]2[C@H](CO)N3CCCCN(C(=O)Nc4ccccc4)C[C@@H]23)cc1`, the IC50 is 11.1 µM.
Under `C/C=C/c1ccc(C2[C@@H]3CN(C(=O)Nc4ccc(C(F)(F)F)cc4)C[C@H]2N3)cc1` (some centres undefined) stands 13.7 µM and 10.6 µM; under `O=C(Nc1ccc(C(F)(F)F)cc1)N1[C@@H]2CNC[C@H]1C2c1ccc(/C=C/c2ccccc2)cc1` (some centres undefined), 19.5 µM and 4.14 µM; under `COc1cc(CN2C[C@@H]3N[C@H](C2)C3c2ccc(-c3cccc(OC)c3)cc2)cc(OC)c1` (some centres undefined), 13 µM and 14 µM.
Under `COc1ccccc1NC(=O)N1CCCCN2[C@@H](CO)[C@@H](c3ccc(-c4cccc(C)c4)cc3)[C@@H]2C1` stands 23.5 µM; under `O=C(C[C@@H]1CC[C@@H]2[C@H](COC[C@@H](O)CN2C(=O)Nc2ccc(C(F)(F)F)cc2)O1)NC1Cc2ccccc2C1`, 6.53 µM; under `Fc1ccc(-c2ccc(C3[C@@H]4CN(Cc5cccc(F)c5)C[C@H]3N4)cc2)cc1` (some centres undefined), 5.47 µM and 20.4 µM.
As for `O=C(Nc1ccc(F)cc1)N1CCCCN2[C@H](CO)[C@H](c3ccc(-c4ccccc4F)cc3)[C@H]2C1`, the 50% inhibitory concentration (IC50) is 55.9 µM.
Under `COc1ccccc1S(=O)(=O)N1C[C@@H]2N[C@H](C1)C2c1ccc(-c2cccc(C)c2)cc1` (some centres undefined) stands 53.5 µM.
Turning to `O=C(Nc1ccc(C(F)(F)F)cc1)N1C[C@@H]2N[C@H](C1)C2c1ccc(/C=C/c2ccccc2)cc1` (some centres undefined), the IC50 was 1.98 µM and 3.86 µM.
With `Cc1ccccc1-c1ccc(C2[C@@H]3CN(Cc4cocn4)C[C@H]2N3)cc1` (some centres undefined), the IC50 is 45.5 µM.
For the compound `O=C(C[C@@H]1CC[C@@H]2[C@H](COC[C@H](O)CN2C(=O)Nc2ccc(Cl)c(Cl)c2)O1)NC1CCC1`, the IC50 is 20.3 µM.
With `COc1ccc(C#Cc2ccc([C@H]3[C@H](CO)N4CCCCN(C(=O)Nc5cccc(F)c5)C[C@@H]34)cc2)cc1` the figure was 20.9 µM.
Under `COc1ccccc1C#Cc1ccc2c(c1)[C@@H]1[C@@H](CCN1C(=O)c1ccncc1)[C@@H](CO)N2` stands > 120 µM (inactive); under `COc1cccc(-c2ccc(C3[C@@H]4CN(Cc5ccccn5)C[C@H]3N4)cc2)c1` (some centres undefined), 91.5 µM; under `Cc1ccc(S(=O)(=O)N2[C@@H]3CNC[C@H]2C3c2ccc(-c3ccccc3C)cc2)cc1` (some centres undefined), 30.6 µM.
With `N#Cc1ccc(-c2ccc3c(c2)[C@H]2[C@H](CCN2C(=O)c2ccncc2)[C@H](CO)N3)cc1` the figure was > 120 µM (inactive); with `COc1ccc(C#Cc2ccc([C@@H]3[C@@H](CO)N4CCCCN(Cc5ccccc5F)C[C@H]34)cc2)cc1`, 7.31 µM.
`O=C(Nc1cccc(F)c1)N1CCCCN2[C@@H](CO)[C@@H](c3ccc(C#CC4CC4)cc3)[C@@H]2C1`: the IC50 was 35.4 µM.
Under `O=C(C[C@H]1CC[C@@H]2[C@H](COC[C@H](O)CN2C(=O)Nc2ccc(C(F)(F)F)cc2)O1)NCC1CCCCC1` stands 6.15 µM.
Under `O=S(=O)(c1ccccc1F)N1[C@@H]2CNC[C@H]1C2c1ccc(/C=C/c2ccccc2)cc1` (some centres undefined) stands 73.5 µM.
With `O=C(C[C@@H]1CC[C@@H]2[C@H](COC[C@@H](O)CN2C(=O)Nc2ccc(Cl)c(Cl)c2)O1)NC1CCC1` the figure was 5.89 µM; with `COc1ccc(-c2ccc(C3[C@@H]4CN(Cc5cc(OC)cc(OC)c5)C[C@H]3N4)cc2)cc1` (some centres undefined), 6.55 µM and 25.8 µM; with `Fc1cccc(CN2C[C@@H]3N[C@H](C2)[C@@H]3c2ccc(-c3cccc(F)c3)cc2)c1`, 6.05 µM.
For the compound `Cc1ccccc1-c1ccc(C2[C@@H]3CN(Cc4ccc5c(c4)OCO5)C[C@H]2N3)cc1` (some centres undefined), the IC50 is 5.63 µM and 15.6 µM.
With `Cc1ccc(-c2ccc([C@@H]3[C@H](CO)N4CCCCN(C(=O)Nc5ccccc5)C[C@@H]34)cc2)cc1` the figure was 20.2 µM; with `N#Cc1cccc(-c2ccc(C3[C@H]4CNC[C@@H]3N4Cc3ccc(F)cc3)cc2)c1` (some centres undefined), 29.4 µM; with `Cc1ccc(S(=O)(=O)N2[C@@H]3CNC[C@H]2C3c2ccc(-c3cccc(F)c3)cc2)cc1` (some centres undefined), 52.3 µM.
For `Cc1cccc(-c2ccc([C@H]3[C@H](CO)N4CCCCN(CCC(F)(F)F)C[C@@H]34)cc2)c1`, the IC50 is 68.9 µM.
Under `C/C=C/c1ccc(C2[C@H]3CNC[C@@H]2N3C(=O)Nc2cccc(Cl)c2)cc1` (some centres undefined) stands 54.4 µM; under `O=C(Nc1ccccc1)N1CCCCN2[C@@H](CO)[C@H](c3ccc(C#Cc4ccccc4)cc3)[C@@H]2C1`, 19.2 µM.
For the compound `Cc1ccccc1-c1ccc(C2[C@H]3CNC[C@@H]2N3Cc2ccc3c(c2)OCO3)cc1` (some centres undefined), the IC50 was 27.7 µM.
In the case of `C(=C\c1ccc(C2[C@@H]3CN(Cc4cccnc4)C[C@H]2N3)cc1)/c1ccccc1` (some centres undefined), the IC50 was 52.1 µM and 56.8 µM.
Under `O=S(=O)(Cc1ccccc1)N1CCCCN2[C@H](CO)[C@H](c3ccc(-c4ccc(F)cc4)cc3)[C@H]2C1` stands 42.5 µM; under `COc1cccc(S(=O)(=O)N2C[C@@H]3N[C@H](C2)C3c2ccc(/C=C/c3ccccc3)cc2)c1` (some centres undefined), 12.7 µM; under `COc1ccccc1NC(=O)N1CCCCN2[C@@H](CO)[C@@H](c3ccc(-c4ccc(C)cc4)cc3)[C@@H]2C1`, 28.7 µM.
In the case of `O=C(Nc1cccc(F)c1)N1CCCCN2[C@H](CO)[C@H](c3ccc(C#CC4CC4)cc3)[C@H]2C1`, the IC50 was 47.6 µM.
With `COc1ccc(NC(=O)N2CCCCN3[C@@H](CO)[C@@H](c4ccc(C#Cc5ccccc5)cc4)[C@@H]3C2)cc1` the figure was 16.2 µM; with `COc1cccc(S(=O)(=O)N2C[C@@H]3N[C@H](C2)C3c2ccc(-c3ccccc3F)cc2)c1` (some centres undefined), 26 µM.
Take `O=C(C[C@H]1CC[C@@H]2[C@H](COC[C@@H](O)CN2C(=O)Nc2ccc(Cl)c(Cl)c2)O1)NC1CCC1`: the IC50 was 27.5 µM.
Under `Cc1ccc(-c2ccc(C3[C@H]4CNC[C@@H]3N4S(=O)(=O)c3cccc(C)c3)cc2)cc1` (some centres undefined) stands 30.3 µM.
Take `Cc1cccc(-c2ccc(C3[C@@H]4CN(C(=O)C5CCCC5)C[C@H]3N4)cc2)c1` (some centres undefined): the IC50 was 62.9 µM.
Turning to `COc1ccc(S(=O)(=O)N2CCCCN3[C@@H](CO)[C@@H](c4ccc(C#CCC(C)C)cc4)[C@@H]3C2)cc1`, the IC50 was 13.6 µM.
